Laboratory results: patent US20230173764A1, “SURGICAL SYSTEM AND METHODS OF USE” (priority 2021, published 2023)

Tests used:
myofibroblast formation = details: Ajmal et al. (2003); cited from earlier work
[1] = given preoperatively; cited from earlier work
fibrinolysis = assay: concentrations effective against fibrinolysis; details: one tenth of the doses used in the non-GLP acute porcine study
Text: However, in some embodiments, however, higher doses of tranexamic acid are used for topical applications to account for tranexamic acid being widely distributed throughout the extracellular and intracellular compartments when given preoperatively.

Row | Compound | myofibroblast formation (myofibroblast formation) | time to reach plasma concentrations [1] [min] | effective in reversing fibrinolysis (fibrinolysis)
1 | O=S(=O)([O-])CCS.[Na+] [MESNA, sodium 2-mercaptoethane sulfonate] | diminish myofibroblast formation | – | –
2 | NC[C@H]1CC[C@H](C(=O)O)CC1 [tranexamic acid] | – | 5 to 15 | effective
